Results on 2 compounds are retold here after patent US7566462B2, “Stable tablet formulation” (BioMarin Pharmaceutical Inc., priority 2004, dated 2009).

The conditions of series [1]: room temperature; Berneggar and Blau 2002; cited from earlier work.
A short description of series [2]: Solid-state stability and hygroscopicity of polymorph B. In kind it is physicochemical.

With `C[C@H](O)[C@H](O)[C@H]1CNc2nc(N)[nH]c(=O)c2N1` [BH4, Tetrahydrobiopterin], in series [1], the shelf-life was under 8 h.
`C[C@H](O)[C@H](O)[C@H]1CNc2nc(N)[nH]c(=O)c2N1.Cl.Cl` [polymorph B, (6R)-5,6,7,8-tetrahydrobiopterin dihydrochloride]: in series [2], the hygroscopicity entry is “slightly hygroscopic” and the thermodynamic stability entry was “highest thermodynamic stability above about 20 °C”. In series [2] (percent relative humidity approaches 80%), the “behaviour at high humidity” value is “appears to take up much more water, loses its crystalline form, and becomes labile to oxidation”. Besides, in series [2] (room temperature, atmospheric oxygen, normal humidity), the “stability of the anhydrous polymorph” value was “stable at room temperature to atmospheric oxygen and normal humidity”.
